Series [1] is described as follows: Test for decolorizing agent (opacity). Conditions: pasta immersed in the agent 5 days, then SoROCS 3 days; mean±SD of three experiments; water control 1.079±0.002. The protocol: Pasta samples made from durum wheat were fixed in 4% (wt/wt) PFA/PBS at 30° C. for 1.5 hours, and washed twice in D-PBS. […] Values represent mean ±SD of three independent experiments.

The nature of series [2]: Measurement of opacity of noodle samples after optical clearing. Conditions: Example 6: 3M to 4M aqueous solutions, 30° C. for 3 days after fixation. The protocol: ClearSee was prepared by mixing xylitol powder [Nacalai tesque, 36718-65; final concentration 10% (wt/vol)], sodium deoxycholate [Nacalai tesque, 10712-96; final concentration 15% (wt/vol)], and urea [Nacalai tesque, 35905-35; final concentration 25% (wt/vol)] in Milli-Q water.
The opacity of the samples was determined using a cooled CCD camera system (GE Healthcare, ImageQuant LAS 4000). […] Then, the sample was digitised by the CCD camera which was cooled to −25° C. with a lens (F0.85 43 mm) using white transillumination. […] The opacity of the sample was calculated by normalising the gray value of the sample with that of the background using free software (Fiji). The contrast C, which represents the difference in gray level, was calculated according to the following equation (1) from an image of the samples laid with a film on which a grid pattern was printed. The plot profile was measured using Fiji software.
ClearSee is a reagent that is able to make plant samples transparent as described in Non-patent Literature 1, and aims to remove autofluorescence of chlorophyll from green leaves. To evaluate the transparency of the noodle samples, the opacity of the transmitted light image was quantified.
The noodle samples were fixed and then immersed in each clearing reagent at 30° C. for 3 days, and the opacity was measured. As controls, the opacity of the noodle sample just after fixation and the noodle sample immersed in D-PBS instead of the clearing reagent was measured. […] Values in the figure represent mean±SD of three independent experiments.

Series [3] is described as follows: Test for defatting agent (opacity). To be noted: fried noodles immersed in the agent 5 days, then SoROCS 3 days; mean±SD of three experiments; water control 1.120±0.006. How it is done: Wheat noodle samples fried in vegetable oil were fixed in 4% (wt/wt) PFA/PBS at 30° C. for 1.5 hours and washed twice in D-PBS. […] Values represent mean ±SD of three independent experiments.

For series [4] the following is noted: water at 20° C.; cited from earlier work.

In series [1], `CCCCC(O)CO` (stereo not shown) [1,2-hexanediol] came in with an opacity of 1.041±0.002.
In the case of `O=C([O-])c1ccccc1C(=O)[O-].[Na+].[Na+]` [disodium phthalate], the “optical clearing of noodle samples” value in series [2] was “cleared”.
Same read-out and setting: the result for `O=C([O-])c1ccccc1O.[Li+]` [lithium salicylate] reads “cleared”.
In series [3], `C=C(C)[C@H]1CC=C(C)CC1` [limonene] displayed an opacity of 1.089±0.004.
For `Oc1ccccc1O` [catechol], the “optical clearing of noodle samples” value in series [2] is on record as “cleared”.
On the same count and under the same terms, as for `O=C([O-])c1ccc(O)cc1.[Na+]` [sodium 4-hydroxybenzoate], the entry is “cleared”.
As for `O=C([O-])c1ccccc1O.[Na+]` [sodium salicylate], in series [4], the solubility in water entry is listed as “about 4.125 M”.
`Oc1cccc(O)c1O` [pyrogallol]: in series [2], the “optical clearing of noodle samples” value was “cleared”.
Take `O=C([O-])c1cccc(O)c1.[Na+]` [sodium 3-hydroxybenzoate]: the “optical clearing of noodle samples” value in series [2] is recorded as “cleared”.
As for `Oc1cccc(O)c1` [resorcinol], in series [2], the “optical clearing of noodle samples” value is “cleared”.
